From patent US11881286B2, “CD8+ t cell based immunosuppressive tumor microenvironment detection method” (GENENTECH, INC., priority 2019, dated 2024)

Key:
IL-6 = IL-6 protein in fibroblast supernatant by Luminex; type: cell-based, human; conditions: rhTGFβ1, 48 h
Procedure: (§1) The primary normal fibroblast PHBF (Bladder), CCD-18Co (Colon) and HOF (Ovary) were serum-starved overnight before treatment with media only (untreated), 10 ng/mL rhTGFβ1 or 10 ng/mL rhTGFβ1+10 μM Galunisertib for 24 hours and total RNA was extracted for RNA-seq analysis. To detect IL-6 protein in the supernatant, cells were treated for 48 hours with rhTGFβ1. After the 48 h, the supernatant was collected and analysed by Luminex using the Millipore kit. For the proliferation assay, PHBF, CCD-18Co, HOF were plated at 3,000 cells/well in a 96-well culture flat bottom plate for immunofluorescent assays (Corning, #3917) overnight. Cells were then cultured for 72 hours in DMEM high glucose+1% FBS with indicated concentration of TGFβ1 with or without Galunisertib. Next, CellTiter-Glo® reagents (Promega, G7570) were added to each well and luminescence signal was read with a microplate reader.

[1] = system: primary human fibroblasts; experiment: Proliferation assay (CellTiter-Glo) of primary human fibroblasts; type: cell-based; conditions: ovary, bladder and colon fibroblasts, 72 h
Procedure: as §1

SMAD2/3 = experiment: p-SMAD2/3 Western blot assay in PHBF fibroblasts; type: cell-based, human; conditions: 30 min
Procedure: PHBF cells were plated at 100,000 cells/well in a 24-well cell culture plate overnight, serum starved for 24 h and then cultured in serum-free DMEM with indicated concentration of […] with or without Galunisertib for 30 min. Cells were lysed in protein lysis buffer containing T-PER tissue protein extraction reagent (ThermoFisher, #78510), cOmplete™ Protease Inhibitor Cocktail (Sigma-Aldrich, #11697498001) and PhosSTOP™ phosphatase inhibitor cocktails (Sigma-Aldrich, #4906845001). Total protein was diluted and normalized to 0.5 μg/μL with 4×LDS Sample Buffer (ThermoFisher, #84788). 10 ug of total protein was loaded into each well of a NuPAGE 4-12% Bis-Tris Midi Gel (Invitrogen), followed by protein transfer from gel to the membrane using Trans-Blot Turbo (Bio-Rad). […] Briefly, the membrane was blocked for 1 h, incubated with Phospho-Smad2 antibodies overnight at 4° C. ([…], 1:200, Cell Signaling #3108, clone138D4), washed and incubated with secondary antibodies goat anti-rabbit. To analyse the total Smad2/3, the membrane was stripped and then incubated with Smad2/3 antibodies (1:1000, Cell Signaling #8685).

[2] = system: primary human fibroblasts; experiment: RNA-seq transcriptional response of primary human fibroblasts; type: cell-based; conditions: 10 ng/mL rhTGFβ1, 24 h
Procedure: as §1

OVCA-420 = experiment: Surface MHC-I (HLA-ABC) expression by flow cytometry, OVCA-420; type: cell-based, human
Procedure: SK-OV-3 and OVCA-420 (MHC-I^high), and OAW42 and PA-1 (MHC-I^low) ovarian cancer lines were cultured in complete culture media (RPMI-1640+10% FBS). The cells were plated at 12,500-100,000 cells/well in 6-well tissue culture plate and complete culture media. After 24 hours, the cells were starved overnight in DMEM high glucose medium without FBS. Next, the starving media was replaced with culture media only (DMEM+2% FBS), 10 ng/mL rhTGFβ1 (Cat #PHG9204, Thermo Fisher, CA), 10 ng/mL rhTGFβ1+10 μM Galunisertib (Cat #S2230, SelleckChem, TX) or 5 ng/mL recombinant IFNγ (Cat #554617, BD Biosciences, CA) for 96 h at 37° C. Cells were then stained and analysed by flow cytometry. The “percentage of untreated” was calculated using this formula: [Geo Mean Fluorescence Intensity (IFNγ-treated cells)/Geo Mean Fluorescence Intensity (untreated cells)]×100. In order to see if MHC-I expression can be regulated by methylation, two MHC-I^low lines OAW42 and PA-1 were plated at 250,000-500,000 cells/dish in 10-cm dish and serum starved as described above for TGFβ1 treatment. 10 μM and 1 μM 5-Aza-2′-deoxycytidine (5-Aza, Cat #A2385, Sigma-Aldrich) demethylating agent in culture media was used to treat OAW42 and PA-1, respectively, for 96 h prior to FACS analysis. Media was half-replenished with fresh 5-Aza 48 hours after treatment to keep concentration consistent.
Before staining, Fc receptors were blocked for 10 min at room temperature using FcR blocking reagent human (Cat #130-059-901, Miltenyi Biotec, CA). Cells were stained during the blocking step with the LIVE/DEAD™ Fixable Near-IR Dead Cell (Cat #L10119, Invitrogen, CA). Then, cells were incubated at room temperature for 15 min with anti-human HLA-ABC-PE (Cat #560168, BD Biosciences, CA) or isotype control mouse IgG1κ-PE (Cat #556650, BD Biosciences) antibodies, washed and samples were acquired on BD LSRFortessa™ flow cytometer.

SK-OV-3 = experiment: Surface MHC-I (HLA-ABC) expression by flow cytometry, SK-OV-3; type: cell-based, human; conditions: 96 h
Procedure: SK-OV-3 and OVCA-420 (MHC-I^high), and OAW42 and PA-1 (MHC-I^low) ovarian cancer lines were cultured in complete culture media (RPMI-1640+10% FBS). The cells were plated at 12,500-100,000 cells/well in 6-well tissue culture plate and complete culture media. After 24 hours, the cells were starved overnight in DMEM high glucose medium without FBS. Next, the starving media was replaced with culture media only (DMEM+2% FBS), 10 ng/mL rhTGFβ1 (Cat #PHG9204, Thermo Fisher, CA), 10 ng/mL rhTGFβ1+10 μM Galunisertib (Cat #S2230, SelleckChem, TX) or 5 ng/mL recombinant IFNγ (Cat #554617, BD Biosciences, CA) for 96 h at 37° C. Cells were then stained and analysed by flow cytometry. The “percentage of untreated” was calculated using this formula: [Geo Mean Fluorescence Intensity (IFNγ-treated cells)/Geo Mean Fluorescence Intensity (untreated cells)]×100. In order to see if MHC-I expression can be regulated by methylation, two MHC-I^low lines OAW42 and PA-1 were plated at 250,000-500,000 cells/dish in 10-cm dish and serum starved as described above for TGFβ1 treatment. 10 μM and 1 μM 5-Aza-2′-deoxycytidine (5-Aza, Cat #A2385, Sigma-Aldrich) demethylating agent in culture media was used to treat OAW42 and PA-1, respectively, for 96 h prior to FACS analysis. Media was half-replenished with fresh 5-Aza 48 hours after treatment to keep concentration consistent. […]

OAW42 = experiment: Surface MHC-I (HLA-ABC) expression by flow cytometry, OAW42; type: cell-based, human; conditions: 96 h
Procedure: (§2) SK-OV-3 and OVCA-420 (MHC-I^high), and OAW42 and PA-1 (MHC-I^low) ovarian cancer lines were cultured in complete culture media (RPMI-1640+10% FBS). The cells were plated at 12,500-100,000 cells/well in 6-well tissue culture plate and complete culture media. After 24 hours, the cells were starved overnight in DMEM high glucose medium without FBS. Next, the starving media was replaced with culture media only (DMEM+2% FBS), 10 ng/mL rhTGFβ1 (Cat #PHG9204, Thermo Fisher, CA), 10 ng/mL rhTGFβ1+10 μM Galunisertib (Cat #S2230, SelleckChem, TX) or 5 ng/mL recombinant IFNγ (Cat #554617, BD Biosciences, CA) for 96 h at 37° C. Cells were then stained and analysed by flow cytometry. The “percentage of untreated” was calculated using this formula: [Geo Mean Fluorescence Intensity (IFNγ-treated cells)/Geo Mean Fluorescence Intensity (untreated cells)]×100. […] Media was half-replenished with fresh 5-Aza 48 hours after treatment to keep concentration consistent. Before staining, Fc receptors were blocked for 10 min at room temperature using FcR blocking reagent human (Cat #130-059-901, Miltenyi Biotec, CA). Cells were stained during the blocking step with the LIVE/DEAD™ Fixable Near-IR Dead Cell (Cat #L10119, Invitrogen, CA). […]

PA-1 = experiment: Surface MHC-I (HLA-ABC) expression by flow cytometry, PA-1; type: cell-based, human; conditions: 96 h
Procedure: as §2

TGFβ1: recombinant human TGFβ1 (rhTGFβ1, Cat #PHG9204, Thermo Fisher)
IL-6 protein secretion level in the supernatant (IL-6): dramatically increased
proliferation of primary human fibroblasts [1]: promoted proliferation
phosphorylation level of SMAD2/3 (SMAD2/3; TGFβ dose-dependent): increased
expression of immune-modulatory molecules (IL11, TNFAIP6) in fibroblast cells [2]: specifically induced
mRNA expression of IL6 in human fibroblasts [2]: specifically induced
transcriptional program induced in human primary fibroblasts (ECM-related genes, reactive stroma markers) ([2]; ovary, bladder, colon fibroblasts): common 77-gene transcriptional program specifically induced
decrease of surface expression of MHC-I compared to the untreated cells (OVCA-420; OVCA-420, 10 ng/mL rhTGFβ1, 96 h, flow cytometry): 40.45±14.2%

Cc1cccc(-c2nn3c(c2-c2ccnc4ccc(C(N)=O)cc24)CCC3)n1 [Galunisertib]
MHC class I expression in the presence of Galunisertib (SK-OV-3; SK-OV-3, 10 ng/mL rhTGFβ1+10 μM Galunisertib): restored to the untreated level
TGFβ pathway (SMAD2/3 phosphorylation) with Galunisertib treatment (SMAD2/3; TGFβ1 with Galunisertib): pathway inhibition
MHC class I expression in the presence of Galunisertib (OVCA-420; OVCA-420, 10 ng/mL rhTGFβ1+10 μM Galunisertib, 96 h): restored to the untreated level

Nc1ncn([C@H]2C[C@H](O)[C@@H](CO)O2)c(=O)n1 [5-aza-2′-deoxycytidine]
expression of MHC class I protein at the tumor cell surface (OAW42; OAW42, 10 μM 5-Aza, vs DMSO): significantly induce
expression of MHC class I protein at the tumor cell surface (PA-1; PA-1, 1 μM 5-Aza, vs DMSO): significantly induce

B1: IFNγ: recombinant IFNγ, a cytokine well established for inducing MHC-I expression (protein, UniProt P01579 24-161, looked up)
Interferon gamma: QDPYVKEAENLKKYFNAGHSDVADNGTLFLGILKNWKEESDRKIMQSQIVSFYFKLFKNFKDDQSIQKSVETIKEDMNVKFFNSNKKKRDDFEKLTNYSVTDLNVQRKAIHELIQVMAELSPAAKTGKRKRSQMLFRG
MHC class I protein expression on the tumor cell surface (SK-OV-3; SK-OV-3 (MHC-I high), 5 ng/mL IFNγ): increased
MHC class I protein expression on the tumor cell surface (OAW42; OAW42 (MHC-I low), 5 ng/mL IFNγ): increased
MHC class I protein expression on the tumor cell surface (OVCA-420; OVCA-420 (MHC-I high), 5 ng/mL IFNγ, 96 h): increased
MHC class I protein expression on the tumor cell surface (PA-1; PA-1 (MHC-I low), 5 ng/mL IFNγ): increased
